Among the data in ChEMBL document CHEMBL5038648, “Dolabellane Diterpenes and Elemane Alkaloids from the Soft Coral Clavularia inflata Collected in the South China Sea” (J Nat Prod, 2022) are Activity values, retold here.

For assay [1], the species on record is Danio rerio. Kind of assay: Antiinflammatory activity in transgenic fluorescent zebrafish expressing EGFP assessed as reduction in CuSO4 induced macrophage migration at 20 uM preincubated for 2 hrs followed Cuso4 addition and measured after 1 hr by fluorescence microscopic analysis. To be noted: time 3.0 hrs. The format is functional, organism-based.
For assay [2], the species on record is Danio rerio. Kind of assay: Antiinflammatory activity in transgenic fluorescent zebrafish expressing EGFP assessed as reduction in CuSO4 induced number of macrophages surrounding the neuromast at 20 uM preincubated for 2 hrs followed by Cuso4 addition and measured after 1 hr by fluorescence microscopic analysis. It counts as functional, organism-based. The following applies: time 3.0 hrs.

Active and inactive are the calls of the source. The calls are words filed in the database; no cut-off is given here.

For `CC1=C2CC[C@@]3(C)CC/C(C)=C\C(=O)C[C@@H](C)C[C@@H](OC1=O)[C@]23OO`, the outcome in the assay filed under Danio rerio [1] and in the assay filed under Danio rerio [2] was Active.
With `CC1=C2CC[C@@]3(C)/C=C/[C@]4(C)C[C@](O)(C[C@@H](C)C[C@@H](OC1=O)[C@H]23)OO4`, the result in the assay filed under Danio rerio [1] and in the assay filed under Danio rerio [2] was Active.
Take `CC1=C2C(=O)C[C@@]3(C)CC/C(C)=C\C(=O)C[C@@H](C)C[C@@H](OC1=O)[C@H]23`: the result in the assay filed under Danio rerio [1] and in the assay listed under Danio rerio [2] was Active.
Take `C=C1CC/C=C(\C)C[C@@H](O)[C@@H]2C(C(C)(C)O)=CC[C@@]2(C)CC1`: the result in the assay listed under Danio rerio [1] and in the assay filed under Danio rerio [2] was Active.
In the case of `COc1ccc2c(c1)c(CC(=O)O)c(C)n2C(=O)c1ccc(Cl)cc1`, the result in the assay filed under Danio rerio [1] and in the assay listed under Danio rerio [2] was Active.
With `CC1=C2CC[C@@]3(C)CC/C(C)=C/C(=O)C[C@@H](C)C[C@@H](OC1=O)[C@H]23`, the outcome in the assay listed under Danio rerio [1] and in the assay filed under Danio rerio [2] was Active.
Consider `C=C[C@@]1(C)C[C@H]2NC(=O)C(C)=C2C[C@@H]1C(=C)C(=O)OC`, for which the result in the assay listed under Danio rerio [1] and in the assay filed under Danio rerio [2] was Active.
Regarding `C=C[C@]1(C)C[C@@H]2NC(=O)C(C)=C2C[C@H]1C(=C)C(=O)OC`, the outcome in the assay listed under Danio rerio [1] and in the assay listed under Danio rerio [2] was Active.
`C=C1CC/C=C(\C)C[C@H]2OC(=O)C(C)=C3CC[C@@](C)(CC1)[C@@H]32`: the result in the assay filed under Danio rerio [1] and in the assay filed under Danio rerio [2] was Active.
